Read-outs that look alike come from different tables or passages of the source.
Legend:
SGC-7901 cells = experiment: MTT antiproliferative assay, SGC-7901; assay type: cell-based; details: Homo sapiens, read-out: IC50 (μM) ± SD SGC-7901
Method: (§1) The in vitro antiproliferative activities of all target compounds 4a−k, 5a−h, and 6a−h were assayed by MTT method using human gastric cancer cell line SGC-7901 and human breast cancer cell line MCF-7.
(§2) All cell lines tested in this study were purchased from the American Type Culture Collection (ATCC, Manassas, VA). SGC-7901 (human gastric adenocarcinoma), HCT-116 (human colon carcinoma), and A549 (human pulmonary carcinoma) cells were cultured in RPMI-1640 medium containing 10% foetal serum (FBS) and 1% penicillin-streptomycin solution (100×). MCF-7 (human breast carcinoma) cells were cultured in DMEM medium containing 10% foetal serum (FBS) and 1% penicillin-streptomycin solution (100×). PC-3 (human prostate carcinoma) cells were cultured in Ham’s F-12K medium containing 10% foetal serum (FBS) and 1% penicillin-streptomycin solution (100×). All cells were cultured at 37 °C in a humidified atmosphere containing 5% CO2.
(§3) Cells grown in logarithmic phase were harvested and seeded onto 96-well cell plates at a density of 4 ∼ 5 × 10^3 cells per well (various from cell type) and were cultured for 24 h. Different concentrations of compounds were added into the wells, and the cells were cultured for another 72 h. The medium was removed, then 20 μL of MTT (5 mg/mL in PBS) was added to each well and the cells were incubated for 4 h. 150 μL of DMSO was added to each well to dissolve the formazan, and the absorbance at 490 nm of each well was measured by a microplate reader. IC50 values were calculated by SPSS software.

MCF-7 cells = experiment: MTT antiproliferative assay, MCF-7; assay type: cell-based; details: Homo sapiens, read-out: IC50 (μM) ± SD MCF-7
Method: as §1, §2, §3

[1] = system: microtubule network in PC-3 cells; experiment: Immunofluorescence assay of microtubule network; assay type: cell-based, human; details: 20 nM, 24 h
Method: To evaluate the effects of 4k and 5a on intracellular microtubule, immunofluorescence assay was carried out to observe the changes of microtubule network in cell.
PC-3 cells in logarithmic phase were harvested and seeded onto 12-well cell plates with round coverslip on the bottom of each well at a density of 3 × 10^4 cells per well, and were cultured for 24 h. […] The medium was removed, and cells were washed with PBS twice, fixed with 4% formaldehyde in PBS for 30 min, then the solution was removed. Cells were washed with PBS twice, permeabilized with 0.2% (v/v) Triton X-100 in PBS for 30 min, then the solution was removed. Cells were washed with PBS twice, blocking the cells in 5% bovine serum albumin (BSA) for 30 min. Then BSA was removed, and cells were incubated with the primary α-tubulin antibody (Santa Cruz, CA) containing 2% BSA (v/v, 1: 100) overnight at 4 °C.
The following steps were operated in dark environment. The antibody was removed, then cells were washed with PBST twice and were added FITC-conjugated anti-mouse secondary antibody diluted (1:100) with 2% BSA in PBS and incubated at room temperature for 4 h. The cells were then washed with PBST twice, stained with 4′,6-diamidino-2-phenylindole (DAPI) for 30 min at room temperature, and washed with PBS twice. The round coverslips at the bottom of wells were taken out, and the images were photographed by a confocal microscope.

tubulin = experiment: In vitro tubulin polymerisation assay; assay type: biochemical; details: 3 μM
Method: To investigate the effect of compounds 4k and 5a on microtubule system, their tubulin polymerisation inhibition activities were evaluated using in vitro tubulin polymerisation assay.
The BK001 kit used in this test was purchased from Cytoskeleton Inc. (Denver, CO, USA). […] Then the mixtures were transferred to 37 °C and tubulin assembly was monitored (excitation wavelength: 360 nm; emission wavelength: 420 nm) at 1 min intervals for 90 min by a microplate reader.

[2] = SGC-7901, 72 h drug exposure, MTT assay
[3] = MCF7, 72 h drug exposure, MTT assay

SMILES | IC50 (SGC-7901 cells; [2]) [µM] | IC50 (MCF-7 cells; [3]) [µM] | also measured
COc1cc(C2=NCC(=O)Nc3cn(-c4cccc(C)c4)nc32)cc(OC)c1OC [5b, 2–(3-Methylphenyl)-8–(3,4,5-trimethoxyphenyl)-2,6-dihydropyrazolo[4,3-e][1,4]diazepin-5(4H)-one] | 0.424 ± 0.076 | 0.665 ± 0.052 | –
COc1cc(C2=NNC(=S)Nc3cn(-c4ccc(Cl)cc4)nc32)cc(OC)c1OC [6h, 2–(4-Chlorophenyl)-8–(3,4,5-trimethoxyphenyl)-2,6-dihydropyrazolo[4,3-e][1,2,4]triazepine-5(4H)-thione] | 0.485 ± 0.03 | 0.662 ± 0.07 | –
COc1ccc(-n2cc(N)c(C(=O)c3cc(OC)c(OC)c(OC)c3)n2)cc1 [4g, (4-Amino-1–(4-methoxyphenyl)-1H-pyrazol-3-yl)(3,4,5-trimethoxyphenyl)methanone] | 0.022 ± 0.002 | 0.068 ± 0.012 | –
COc1cc(C2=NNC(=S)Nc3cn(-c4ccccc4F)nc32)cc(OC)c1OC [6d, 2–(2-Fluorophenyl)-8–(3,4,5-trimethoxyphenyl)-2,6-dihydropyrazolo[4,3-e][1,2,4]triazepine-5(4H)-thione] | 0.087 ± 0.008 | 0.398 ± 0.079 | –
COc1cc(C2=NNC(=S)Nc3cn(-c4cccc(C)c4)nc32)cc(OC)c1OC [6b, 2–(3-Methylphenyl)-8–(3,4,5-trimethoxyphenyl)-2,6-dihydropyrazolo[4,3-e][1,2,4]triazepine-5(4H)-thione] | 0.366 ± 0.065 | 0.749 ± 0.181 | –
COc1cc(C(=O)c2nn(-c3cccc(F)c3)cc2N)cc(OC)c1OC [4e, (4-Amino-1–(3-fluorophenyl)-1H-pyrazol-3-yl)(3,4,5-trimethoxyphenyl)methanone] | 0.439 ± 0.037 | 0.35 ± 0.023 | –
COc1cc(C(=O)c2nn(-c3ccc(C)cc3)cc2N)cc(OC)c1OC [4c, (4-Amino-1–(4-methylphenyl)-1H-pyrazol-3-yl)(3,4,5-trimethoxyphenyl)methanone] | 0.234 ± 0.033 | 3.9 ± 0.205 | –
COc1cc(C(=O)c2nn(-c3ccc(Cl)cc3)cc2N)cc(OC)c1OC [4h, (4-Amino-1–(4-chlorophenyl)-1H-pyrazol-3-yl)(3,4,5-trimethoxyphenyl)methanone] | 0.318 ± 0.02 | 0.098 ± 0.007 | –
COc1cc(C(=O)c2nn(-c3ccccc3C)cc2N)cc(OC)c1OC [4i, (4-Amino-1–(2-methylphenyl)-1H-pyrazol-3-yl)(3,4,5-trimethoxyphenyl)methanone] | 0.166 ± 0.004 | 2.2 ± 0.196 | –
COc1cc2c(c(OC)c1OC)-c1ccc(OC)c(=O)cc1[C@@H](NC(C)=O)CC2 [Colchicine, reference compound] | – | – | effect on microtubule network [1]: microtubule network was destroyed
COc1cc(C(=O)c2nn(-c3ccc(F)cc3)cc2N)cc(OC)c1OC [4f, (4-Amino-1–(4-fluorophenyl)-1H-pyrazol-3-yl)(3,4,5-trimethoxyphenyl)methanone] | 0.092 ± 0.005 | 0.162 ± 0.01 | –
COc1cc(C(=O)c2nn(-c3ccccc3)cc2N)cc(OC)c1OC [4a, (4-Amino-1-phenyl-1H-pyrazol-3-yl)(3,4,5-trimethoxyphenyl)methanone] | 0.04 ± 0.003 | 0.034 ± 0.005 | –
COc1cc(C2=NCC(=O)Nc3cn(-c4ccc(F)cc4)nc32)cc(OC)c1OC [5f, 2–(4-Fluorophenyl)-8–(3,4,5-trimethoxyphenyl)-2,6-dihydropyrazolo[4,3-e][1,4]diazepin-5(4H)-one] | 0.137 ± 0.025 | 1.86 ± 0.438 | –
COc1cc(C2=NNC(=S)Nc3cn(-c4ccccc4)nc32)cc(OC)c1OC [6a, 2-Phenyl-8–(3,4,5-trimethoxyphenyl)-2,6-dihydropyrazolo[4,3-e][1,2,4]triazepine-5(4H)-thione] | 2.74 ± 0.041 | 2.98 ± 0.462 | –
COc1cc(C2=NCC(=O)Nc3cn(-c4ccc(C)cc4)nc32)cc(OC)c1OC [5c, 2–(4-Methylphenyl)-8–(3,4,5-trimethoxyphenyl)-2,6-dihydropyrazolo[4,3-e][1,4]diazepin-5(4H)-one] | 0.117 ± 0.01 | 1.38 ± 0.433 | –
COc1cc(C2=NNC(=S)Nc3cn(-c4cccc(F)c4)nc32)cc(OC)c1OC [6e, 2–(3-Fluorophenyl)-8–(3,4,5-trimethoxyphenyl)-2,6-dihydropyrazolo[4,3-e][1,2,4]triazepine-5(4H)-thione] | 5.12 ± 0.099 | 6.9 ± 0.815 | –
COc1cc(C(=O)c2nn(-c3ccccc3F)cc2N)cc(OC)c1OC [4d, (4-Amino-1–(2-fluorophenyl)-1H-pyrazol-3-yl)(3,4,5-trimethoxyphenyl)methanone] | 0.086 ± 0.004 | 0.404 ± 0.036 | –
CC(=O)O[C@H]1C(=O)[C@@]2(C)[C@H]([C@H](OC(=O)c3ccccc3)[C@]3(O)C[C@H](OC(=O)[C@H](O)[C@@H](NC(=O)c4ccccc4)c4ccccc4)C(C)=C1C3(C)C)[C@]1(OC(C)=O)CO[C@@H]1C[C@@H]2O [paclitaxel, reference compound] | – | – | effect on tubulin polymerisation (fluorescence intensity) (tubulin): enhanced microtubule polymerisation
COc1cc(C2=NNC(=S)Nc3cn(-c4ccc(F)cc4)nc32)cc(OC)c1OC [6f, 2–(4-Fluorophenyl)-8–(3,4,5-trimethoxyphenyl)-2,6-dihydropyrazolo[4,3-e][1,2,4]triazepine-5(4H)-thione] | 10 ± 0.078 | 8.42 ± 0.954 | –
COc1cc(C(=O)c2nn(-c3ccc([N+](=O)[O-])cc3)cc2N)cc(OC)c1OC [4j, (4-Amino-1–(4-nitrophenyl)-1H-pyrazol-3-yl)(3,4,5-trimethoxyphenyl)methanone] | 0.04 ± 0.006 | 0.391 ± 0.083 | –
COc1cc(C(=O)c2nn(-c3cccc(C)c3)cc2N)cc(OC)c1OC [4b, (4-Amino-1–(3-methylphenyl)-1H-pyrazol-3-yl)(3,4,5-trimethoxyphenyl)methanone] | 0.095 ± 0.011 | 0.224 ± 0.06 | –
COc1ccc(-n2cc3c(n2)C(c2cc(OC)c(OC)c(OC)c2)=NCC(=O)N3)cc1 [5g, 2–(4-Methoxyphenyl)-8–(3,4,5-trimethoxyphenyl)-2,6-dihydropyrazolo[4,3-e][1,4]diazepin-5(4H)-one] | – | – | IC50 (SGC-7901 cells; SGC-7901, 72 h): 0.841 ± 0.024 µM; IC50 (MCF-7 cells; MCF7, 72 h): 2.86 ± 0.435 µM
COc1cc(C2=NCC(=O)Nc3cn(-c4cccc(F)c4)nc32)cc(OC)c1OC [5e, 2–(3-Fluorophenyl)-8–(3,4,5-trimethoxyphenyl)-2,6-dihydropyrazolo[4,3-e][1,4]diazepin-5(4H)-one] | 0.949 ± 0.017 | 3.01 ± 0.534 | –
COc1ccc(-n2cc3c(n2)C(c2cc(OC)c(OC)c(OC)c2)=NNC(=S)N3)cc1 [6g, 2–(4-Methoxyphenyl)-8–(3,4,5-trimethoxyphenyl)-2,6-dihydropyrazolo[4,3-e][1,2,4]triazepine-5(4H)-thione] | 2.16 ± 0.098 | 1.57 ± 0.243 | –
COc1cc(C2=NCC(=O)Nc3cn(-c4ccc(Cl)cc4)nc32)cc(OC)c1OC [5h, 2–(4-Chlorophenyl)-8–(3,4,5-trimethoxyphenyl)-2,6-dihydropyrazolo[4,3-e][1,4]diazepin-5(4H)-one] | 0.772 ± 0.004 | 0.857 ± 0.09 | –
COc1cc(C2=NNC(=S)Nc3cn(-c4ccc(C)cc4)nc32)cc(OC)c1OC [6c, 2–(4-Methylphenyl)-8–(3,4,5-trimethoxyphenyl)-2,6-dihydropyrazolo[4,3-e][1,2,4]triazepine-5(4H)-thione] | 0.151 ± 0.024 | 0.123 ± 0.02 | –
COc1cc(C2=NCC(=O)Nc3cn(-c4ccccc4F)nc32)cc(OC)c1OC [5d, 2–(2-Fluorophenyl)-8–(3,4,5-trimethoxyphenyl)-2,6-dihydropyrazolo[4,3-e][1,4]diazepin-5(4H)-one] | 0.053 ± 0.008 | 1.08 ± 0.381 | –

Reference: article PMC12459184, “Design, synthesis, and bioevaluation of pyrazole-containing tubulin polymerisation inhibitors based on conformational constraint strategy” (Journal of Enzyme Inhibition and Medicinal Chemistry, 2025)
